Experimental data published in paper PMC8286840, “Identifying SARS-CoV-2 antiviral compounds by screening for small molecule inhibitors of Nsp3 papain-like protease” (Biochemical Journal, 2021).
Structures can show the parent of a compound that is named as a salt. Where two headings read alike, the source gives them in different places.

Legend:
[1] = biological target: T1, SARS-CoV-2 PLpro (nsp3 1564–1878) (Severe acute respiratory syndrome coronavirus 2, UniProt P0DTD1); assay: biochemical; design: FRET-quenched peptide (Pro3) cleavage by PLpro, 10 min pre-incubation, slope over 20 min, normalised to no-compound control; conditions: high concentration screen, read-out: % of control remaining
[2] = biological target: T1, SARS-CoV-2 PLpro (nsp3 1564–1878); assay: biochemical; design: FRET-quenched peptide (Pro3) cleavage by PLpro, 10 min pre-incubation, slope over 20 min, normalised to no-compound control; conditions: low concentration screen, read-out: % of control remaining

Structure (SMILES): C[C@@H](O)[C@H]1C(=O)N2C(C(=O)O)=C(S[C@@H]3CN[C@H](CNS(N)(=O)=O)C3)[C@H](C)[C@H]12 [Doripenem Hydrate]
- remaining activity at 3.75 µM ([1]; Well no.=5203): 104%
- remaining activity at 1.25 µM ([2]; Well no.=5203): 103%

Structure (SMILES): S=C(N/N=C1\CCCc2cccnc21)N1CCN(c2ccccn2)CC1 [COTI-2]
- remaining activity at 3.75 µM ([1]; Well no.=6156): 110%
- remaining activity at 1.25 µM ([2]; Well no.=6156): 109%

Structure (SMILES): COc1cccc(NC(=O)/C=C/c2ccc(Cl)cc2)c1 [SB-366791]
- remaining activity at 3.75 µM ([1]; Well no.=1260): 103%
- remaining activity at 1.25 µM ([2]; Well no.=1260): 104%

Structure (SMILES): O=C(N[C@H]1CN2CCC1CC2)c1c[nH]c2ccsc2c1=O [MKC-733]
- remaining activity at 3.75 µM ([1]; Well no.=5899): 108%
- remaining activity at 1.25 µM ([2]; Well no.=5899): 105%

Structure (SMILES): C[C@H]1C[C@H]2[C@@H]3CCC4=CC(=O)C=C[C@]4(C)[C@H]3C(=O)C[C@]2(C)[C@@]1(O)C(=O)CO [Meprednisone]
- remaining activity at 3.75 µM ([1]; Well no.=6509): 102%
- remaining activity at 1.25 µM ([2]; Well no.=6509): 101%

Structure (SMILES): Cc1[nH]nc2ccc(-c3cncc(OC[C@@H](N)Cc4ccccc4)c3)cc12 [A-674563]
- remaining activity at 3.75 µM ([1]; Well no.=2991): 99.1%
- remaining activity at 1.25 µM ([2]; Well no.=2991): 97%

Structure (SMILES): O=C1c2c(O)cccc2C([C@@H]2O[C@H](CO)[C@@H](O)[C@H](O)[C@H]2O)c2cc(CO)cc(O)c21 (stereo partly shown) [Aloin]
- remaining activity at 3.75 µM ([1]; Well no.=8338): 97.8%
- remaining activity at 1.25 µM ([2]; Well no.=8338): 99.2%

Structure (SMILES): COc1ccc2c3c1O[C@H]1C[C@@H](O)C=C[C@@]31CCN(C)C2
- remaining activity at 3.75 µM ([1]; Well no.=3677): 103%
- remaining activity at 1.25 µM ([2]; Well no.=3677): 98.7%

Structure (SMILES): Cc1cc(OCCCS(C)(=O)=O)cc(C)c1-c1cccc(COc2ccc3c(c2)OC[C@H]3CC(=O)O)c1 [TAK-875]
- remaining activity at 3.75 µM ([1]; Well no.=4966): 91.6%
- remaining activity at 3.75 µM ([1]; Well no.=7771): 103%
- remaining activity at 1.25 µM ([2]; Well no.=4966): 96.6%
- remaining activity at 1.25 µM ([2]; Well no.=7771): 107%

Structure (SMILES): CCN(CC)Cc1cc(Nc2ccnc3cc(Cl)ccc23)ccc1O [Amodiaquine dihydrochloride dihydrate]
- remaining activity at 3.75 µM ([1]; Well no.=8396): 106%
- remaining activity at 1.25 µM ([2]; Well no.=8396): 97.5%

Structure (SMILES): C/C(O)=C(\C#N)C(=O)Nc1cc(Br)ccc1Br [LFM-A13]
- remaining activity at 3.75 µM ([1]; Well no.=789): 97.7%
- remaining activity at 1.25 µM ([2]; Well no.=789): 99.1%

Structure (SMILES): COc1cccc(OC)c1-c1ccc(C[C@H](NC(=O)c2c(Cl)cccc2Cl)C(=O)O)cc1 [TR-14035]
- remaining activity at 3.75 µM ([1]; Well no.=8514): 93.8%
- remaining activity at 1.25 µM ([2]; Well no.=8514): 96.3%

Structure (SMILES): CC(C)Cc1ccc([C@H](C)C(=O)O)cc1 [S(+)-Ibuprofen]
- remaining activity at 3.75 µM ([1]; Well no.=825): 105%
- remaining activity at 1.25 µM ([2]; Well no.=825): 103%

Structure (SMILES): CC(C)(O)CC(=O)O [3-Hydroxyisovaleric acid]
- remaining activity at 3.75 µM ([1]; Well no.=6925): 98.6%
- remaining activity at 1.25 µM ([2]; Well no.=6925): 108%

Structure (SMILES): COc1cc(/C=C(\C#N)C(=O)c2ccc(O)c(O)c2)cc(I)c1O [I-OMe-Tyrphostin AG 538]
- remaining activity at 3.75 µM ([1]; Well no.=1420): 92.9%
- remaining activity at 1.25 µM ([2]; Well no.=1420): 93%

Structure (SMILES): CC[C@]1(O)C[C@@H]2CN(CCc3c([nH]c4ccccc34)[C@@](C(=O)OC)(c3cc4c(cc3OC)N(C)[C@H]3[C@@](O)(C(=O)OC)[C@H](OC(C)=O)[C@]5(CC)C=CCN6CC[C@]43[C@@H]65)C2)C1 [Vinblastine]
- remaining activity at 3.75 µM ([1]; Well no.=2165): 103%
- remaining activity at 1.25 µM ([2]; Well no.=2165): 101%

Structure (SMILES): COc1cc2nc(N3CCN(C(=O)c4ccco4)CC3)nc(N)c2cc1OC [Prazosin (hydrochloride)]
- remaining activity at 3.75 µM ([1]; Well no.=6411): 85.9%
- remaining activity at 1.25 µM ([2]; Well no.=6411): 96.4%

Structure (SMILES): CC1=C(/C=C/C(C)=C/C=C/C(C)=C/C(=O)Nc2ccc(O)cc2)C(C)(C)CCC1 [Retinoic acid p-hydroxyanilide]
- remaining activity at 3.75 µM ([1]; Well no.=708): 94.4%
- remaining activity at 1.25 µM ([2]; Well no.=708): 97.5%

Structure (SMILES): CNS(=O)(=O)CCc1ccc2[nH]cc(C3CCN(C)CC3)c2c1 [Naratriptan HCl]
- remaining activity at 3.75 µM ([1]; Well no.=4909): 99.8%
- remaining activity at 1.25 µM ([2]; Well no.=4909): 97.9%

Structure (SMILES): N#C/C(=C\c1ccc(O)c(O)c1)C(=O)NCc1ccccc1 [Tyrphostin AG 490]
- remaining activity at 3.75 µM ([1]; Well no.=1381): 102%
- remaining activity at 1.25 µM ([2]; Well no.=1381): 101%

Structure (SMILES): O=C[C@H](O)[C@@H](O)[C@H](O)[C@H](O)COP(=O)(O)O [D-Glucose 6-Phosphate]
- remaining activity at 3.75 µM ([1]; Well no.=7263): 98.1%
- remaining activity at 1.25 µM ([2]; Well no.=7263): 98.2%

Structure (SMILES): CN1CCc2cc3c(cc2C(=O)Cc2cc4c(cc2C1)OCO4)OCO3 [Protopine]
- remaining activity at 3.75 µM ([1]; Well no.=3195): 104%
- remaining activity at 1.25 µM ([2]; Well no.=3195): 105%

Structure (SMILES): COc1ccc(C(=O)/C=C/c2cc(OC)c(OC)c(OC)c2)cc1OC [MD2-IN-1]
- remaining activity at 3.75 µM ([1]; Well no.=8739): 95.8%
- remaining activity at 1.25 µM ([2]; Well no.=8739): 100%

Structure (SMILES): CC(=O)Nc1ccc(NC(=S)NC(=O)c2ccc(C(C)(C)C)cc2)cc1 [Tenovin-1]
- remaining activity at 3.75 µM ([1]; Well no.=4784): 96.5%
- remaining activity at 1.25 µM ([2]; Well no.=4784): 95.1%
- remaining activity at 1.25 µM ([2]; Well no.=7160): 98.9%

Structure (SMILES): NS(=O)(=O)OC[C@H]1C[C@@H](Nc2ccnc3cc(-c4cccc(SC(F)(F)F)c4)nn23)[C@H](O)[C@@H]1O [TAK-243]
- remaining activity at 3.75 µM ([1]; Well no.=7078): 97%
- remaining activity at 1.25 µM ([2]; Well no.=7078): 102%

Structure (SMILES): COc1ccc(Cl)c(Nc2nc3ccccc3nc2NS(=O)(=O)c2cccc(NC(=O)C(C)(C)N)c2)c1 [XL147]
- remaining activity at 3.75 µM ([1]; Well no.=4669): 106%
- remaining activity at 1.25 µM ([2]; Well no.=4669): 105%

Structure (SMILES): O=C(O)CC[C@H](NC(=O)N[C@@H](CCCCNC(=O)[C@H](Cc1ccc2ccccc2c1)NC(=O)[C@H]1CC[C@H](CNC(=O)CN2CCN(CC(=O)O)CCN(CC(=O)O)CCN(CC(=O)O)CC2)CC1)C(=O)O)C(=O)O [Vipivotide tetraxetan]
- remaining activity at 3.75 µM ([1]; Well no.=7834): 104%
- remaining activity at 1.25 µM ([2]; Well no.=7834): 103%

Structure (SMILES): c1cc(CN2CCCNCCNCCCNCC2)ccc1CN1CCCNCCNCCCNCC1 [Plerixafor (octahydrochloride)]
- remaining activity at 3.75 µM ([1]; Well no.=8020): 94.1%
- remaining activity at 3.75 µM ([1]; Well no.=8097): 101%
- remaining activity at 3.75 µM ([1]; Well no.=8749): 100%
- remaining activity at 1.25 µM ([2]; Well no.=8020): 95.7%
- remaining activity at 1.25 µM ([2]; Well no.=8097): 104%
- remaining activity at 1.25 µM ([2]; Well no.=8749): 100%

Structure (SMILES): C[C@]12CC[C@@H]3c4ccc(O)cc4CC[C@H]3[C@@H]1CCC2=O [Estrone]
- remaining activity at 3.75 µM ([1]; Well no.=559): 98.9%
- remaining activity at 3.75 µM ([1]; Well no.=2038): 104%
- remaining activity at 3.75 µM ([1]; Well no.=6445): 96%
- remaining activity at 1.25 µM ([2]; Well no.=559): 101%
- remaining activity at 1.25 µM ([2]; Well no.=2038): 103%
- remaining activity at 1.25 µM ([2]; Well no.=6445): 102%

Structure (SMILES): C=C[C@H]1CN2CC[C@H]1C[C@@H]2[C@@H](O)c1ccnc2ccc(OC)cc12 [Quinidine sulfate]
- remaining activity at 3.75 µM ([1]; Well no.=1363): 105%
- remaining activity at 1.25 µM ([2]; Well no.=1363): 101%

Structure (SMILES): COc1ccc(CC[C@H]2CCC[C@@H](CCc3ccc(OC)cc3)N2C[C@@H](O)CO)cc1 [(R)-3-((2R,6S)-2,6-bis(4-methoxyphenethyl)piperidin-1-yl)propane-1,2-diol hydrochloride]
- remaining activity at 3.75 µM ([1]; Well no.=5614): 102%
- remaining activity at 1.25 µM ([2]; Well no.=5614): 101%
